Data reported in article PMC10247784, “Physiological activation of human and mouse bitter taste receptors by bile acids” (Communications Biology, 2023).

Molecular target: T1, mouse Tas2r144 (Mus musculus, UniProt Q7TQB8)
T1 construct: expressed in transfected cells; host or cells: HEK293T-Gα16gust44
Experiment: Calcium imaging assay (FLIPR), HEK293T-Gα16gust44 cells transfected with mouse Tas2r144
Assay type: cell-based
Conditions: for Δ F/F: Tas2r144

T1 sequence (Q7TQB8 whole entry): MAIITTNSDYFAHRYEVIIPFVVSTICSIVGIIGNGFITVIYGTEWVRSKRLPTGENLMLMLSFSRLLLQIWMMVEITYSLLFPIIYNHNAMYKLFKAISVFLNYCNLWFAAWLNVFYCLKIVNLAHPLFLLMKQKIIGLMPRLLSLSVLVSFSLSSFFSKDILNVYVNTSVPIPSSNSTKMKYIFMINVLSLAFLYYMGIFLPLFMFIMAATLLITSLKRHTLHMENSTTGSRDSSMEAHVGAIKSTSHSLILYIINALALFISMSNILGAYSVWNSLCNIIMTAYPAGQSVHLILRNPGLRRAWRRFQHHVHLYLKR

In the case of `C[C@H](CCC(=O)NCCS(=O)(=O)O)[C@H]1CC[C@H]2[C@@H]3[C@H](O)C[C@@H]4C[C@H](O)CC[C@]4(C)[C@H]3C[C@H](O)[C@]12C` [Taurocholic Acid, taurocholic acid], the “Δ F/F” value (conc. 0,01 mM) is reported as -0.002199, the “Δ F/F” value (conc. 0,1 mM) is reported as 0.02935 and the “Δ F/F” value (conc. 0,03 mM) is reported as 0.001887. The “Δ F/F” value (conc. 0,3 mM) was 0.09426, the “Δ F/F” value (conc. 0,003 mM) was -2.869e-5 and the RLU (Time 0 s) was 0 RLU. The RLU (Time 2 s) was 20.3472 RLU, the RLU (Time 4 s) was -2.315 RLU and the RLU (Time 6 s) was 2.885 RLU. It also gave an RLU (Time 8 s) of 19.0475 RLU, an RLU (Time 12 s) of 10.0521 RLU and an RLU (Time 14 s) of 38.5551 RLU. It also gave an RLU (Time 16 s) of 31.9896 RLU, an RLU (Time 18 s) of 16.9759 RLU and an RLU (Time 18.781 s) of 35.5911 RLU. For the same compound, the RLU (Time 20.781 s) was -26.0614 RLU, the RLU (Time 22.781 s) was 10.3855 RLU and the RLU (Time 24.781 s) was 42.5149 RLU. The RLU (Time 26.781 s) was 75.1117 RLU, the RLU (Time 28.781 s) was 107.959 RLU and the RLU (Time 30.781 s) was 191.931 RLU. For the same compound, the RLU (Time 32.781 s) was 233.393 RLU, the RLU (Time 34.781 s) was 329.647 RLU and the RLU (Time 36.781 s) was 353.155 RLU. The RLU (Time 38.781 s) was 375.923 RLU, the RLU (Time 40.781 s) was 418.403 RLU and the RLU (Time 42.781 s) was 459.472 RLU. It also gave an RLU (Time 44.781 s) of 478.994 RLU, an RLU (Time 46.781 s) of 502.94 RLU and an RLU (Time 48.781 s) of 488.439 RLU. The RLU (Time 50.781 s) was 507.687 RLU, the RLU (Time 52.781 s) was 535.446 RLU and the RLU (Time 54.781 s) was 537.48 RLU. For the same compound, the RLU (Time 56.781 s) was 552.298 RLU, the RLU (Time 58.781 s) was 553.568 RLU and the RLU (Time 60.781 s) was 540.78 RLU. For the same compound, the RLU (Time 62.781 s) was 553.576 RLU, the RLU (Time 64.781 s) was 587.565 RLU and the RLU (Time 66.781 s) was 607.94 RLU. The RLU (Time 68.781 s) was 577.506 RLU, the RLU (Time 70.781 s) was 560.61 RLU and the RLU (Time 72.781 s) was 573.499 RLU. For the same compound, the RLU (Time 74.781 s) was 563.961 RLU, the RLU (Time 76.781 s) was 534.766 RLU and the RLU (Time 78.781 s) was 571.912 RLU. The RLU (Time 80.781 s) was 551.232 RLU, the RLU (Time 82.781 s) was 526.613 RLU and the RLU (Time 84.781 s) was 546.451 RLU. The RLU (Time 86.781 s) was 562.077 RLU, the RLU (Time 88.781 s) was 533.968 RLU and the RLU (Time 90.781 s) was 548.478 RLU. The RLU (Time 92.781 s) was 529.823 RLU, the RLU (Time 94.781 s) was 519.583 RLU and the RLU (Time 96.781 s) was 507.965 RLU. For the same compound, the RLU (Time 98.781 s) was 551.349 RLU, the RLU (Time 100.781 s) was 524.649 RLU and the RLU (Time 102.781 s) was 541.47 RLU. It also gave an RLU (Time 104.781 s) of 532.417 RLU, an RLU (Time 106.781 s) of 501.886 RLU and an RLU (Time 108.781 s) of 527.817 RLU. For the same compound, the RLU (Time 110.781 s) was 463.149 RLU, the RLU (Time 112.781 s) was 531.02 RLU and the RLU (Time 114.781 s) was 478.341 RLU. The RLU (Time 116.781 s) was 478.013 RLU, the RLU (Time 118.781 s) was 466.916 RLU and the RLU (Time 120.781 s) was 480.033 RLU. For the same compound, the RLU (Time 122.781 s) was 446.768 RLU, the RLU (Time 124.781 s) was 466.738 RLU and the RLU (Time 126.781 s) was 436.51 RLU. The RLU (Time 128.781 s) was 391.35 RLU, the RLU (Time 130.781 s) was 423.189 RLU and the RLU (Time 132.781 s) was 388.666 RLU. The RLU (Time 134.781 s) was 393.586 RLU, the RLU (Time 136.781 s) was 381.514 RLU and the RLU (Time 137.562 s) was 357.695 RLU. For the same compound, the RLU (Time 143.562 s) was 342.181 RLU, the RLU (Time 149.562 s) was 317.247 RLU and the RLU (Time 155.562 s) was 281.598 RLU. For the same compound, the RLU (Time 161.562 s) was 257.735 RLU, the RLU (Time 167.562 s) was 210.766 RLU and the RLU (Time 173.562 s) was 206.542 RLU. It also gave an RLU (Time 179.562 s) of 190.508 RLU, an RLU (Time 185.562 s) of 200.355 RLU and an RLU (Time 191.562 s) of 160.215 RLU. It also gave an RLU (Time 197.562 s) of 155.746 RLU, an RLU (Time 203.562 s) of 134.432 RLU and an RLU (Time 209.562 s) of 105.802 RLU. It also gave an RLU (Time 215.562 s) of 143.523 RLU, an RLU (Time 221.562 s) of 59.3524 RLU and an RLU (Time 227.562 s) of 55.9412 RLU. The RLU (Time 233.562 s) was 52.6104 RLU, the RLU (Time 239.562 s) was 63.4802 RLU and the RLU (Time 245.562 s) was 58.9605 RLU. For the same compound, the RLU (Time 293.562 s) was 59.2604 RLU, the RLU (Time 299.562 s) was 83.1975 RLU and the RLU (Time 305.562 s) was 80.6402 RLU. The RLU (Time 311.562 s) was 35.6084 RLU, the RLU (Time 317.562 s) was 31.2984 RLU and the RLU (Time 323.562 s) was -1.058 RLU. For the same compound, the RLU (Time 329.562 s) was 12.6222 RLU, the RLU (Time 335.562 s) was -16.6341 RLU and the RLU (Time 341.562 s) was 9.34 RLU. It also gave an RLU (Time 347.562 s) of 17.8158 RLU, an RLU (Time 353.562 s) of 33.5062 RLU and an RLU (Time 359.562 s) of 34.8754 RLU. The “Activation threshold concentration Tas2r144” value (p < 0.01 vs empty vector) was 300 µM.
